This is an account of results in patent publication US4399136A, “Pyrazolopyridazine antihypertensives” (Hoffmann-La Roche Inc., priority 1980, dated 1983).

SMILES strings stand for the structures. pIC50: −log10 of the molar value.

For orientation: pIC50 means the IC50 on a negative log10 scale, so that one unit is a factor of ten. A higher pIC50 goes with a low IC50.

This assay has as its target T1, angiotensin converting enzyme, extracted from rabbit lung (Oryctolagus cuniculus, UniProt P12822).
T1 construct: extracted from rabbit lung; from tissue; host or cells: rabbit lung
T1 sequence (P12822 34-1310): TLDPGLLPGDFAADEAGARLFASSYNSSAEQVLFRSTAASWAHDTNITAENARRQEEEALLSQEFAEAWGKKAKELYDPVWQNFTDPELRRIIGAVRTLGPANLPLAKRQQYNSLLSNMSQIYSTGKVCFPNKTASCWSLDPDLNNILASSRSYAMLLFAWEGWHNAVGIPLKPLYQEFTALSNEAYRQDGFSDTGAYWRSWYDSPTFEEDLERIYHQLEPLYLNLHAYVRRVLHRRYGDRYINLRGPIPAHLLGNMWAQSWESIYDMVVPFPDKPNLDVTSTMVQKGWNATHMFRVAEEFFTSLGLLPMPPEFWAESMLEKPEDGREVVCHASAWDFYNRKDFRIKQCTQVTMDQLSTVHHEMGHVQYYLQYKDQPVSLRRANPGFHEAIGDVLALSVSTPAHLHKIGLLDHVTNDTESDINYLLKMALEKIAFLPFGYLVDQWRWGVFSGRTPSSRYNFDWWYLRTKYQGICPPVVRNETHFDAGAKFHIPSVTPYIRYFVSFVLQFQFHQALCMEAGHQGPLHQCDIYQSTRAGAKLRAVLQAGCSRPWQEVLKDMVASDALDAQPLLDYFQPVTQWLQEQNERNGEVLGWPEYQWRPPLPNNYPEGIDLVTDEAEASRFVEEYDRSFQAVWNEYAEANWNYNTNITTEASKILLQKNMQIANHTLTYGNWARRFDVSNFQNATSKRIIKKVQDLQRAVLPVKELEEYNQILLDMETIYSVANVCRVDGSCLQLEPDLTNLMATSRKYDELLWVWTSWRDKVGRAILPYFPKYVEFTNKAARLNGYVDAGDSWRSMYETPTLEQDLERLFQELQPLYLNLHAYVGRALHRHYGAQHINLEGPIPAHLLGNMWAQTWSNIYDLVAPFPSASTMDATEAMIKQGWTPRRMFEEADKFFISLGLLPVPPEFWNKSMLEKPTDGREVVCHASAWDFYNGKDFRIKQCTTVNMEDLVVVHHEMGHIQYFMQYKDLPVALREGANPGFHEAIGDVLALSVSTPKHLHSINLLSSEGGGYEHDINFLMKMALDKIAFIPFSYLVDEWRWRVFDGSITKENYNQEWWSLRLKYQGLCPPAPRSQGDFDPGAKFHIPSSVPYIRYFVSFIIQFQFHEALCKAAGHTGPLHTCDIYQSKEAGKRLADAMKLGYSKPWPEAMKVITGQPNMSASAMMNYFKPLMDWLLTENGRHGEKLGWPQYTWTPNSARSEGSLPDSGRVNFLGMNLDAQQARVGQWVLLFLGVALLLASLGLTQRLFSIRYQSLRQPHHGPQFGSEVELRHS
The experiment in a line: in vitro inhibition of angiotensin converting enzyme (cleavage of hippuryl-histidyl-leucine). The assay is classed as biochemical. As to conditions: hippuryl-histidyl-leucine 2 mM; rabbit lung ACE; pH 8.3; 25 minutes at 37° C. The protocol:
The activity of the pyrazolopyridazine derivatives of formula I in inhibiting angiotensin converting enzyme in vitro can be determined by the following test.
The method used is based on the method of Cushman and Cheung (Biochem. Pharmacol., 20, 1637-1648) incorporating the modifications introduced by Hayakari et al. (Anal. Biochem., 84, 361-369). The substrate (hippuryl-histidyl-leucine, 2 mM) is incubated with angiotensin converting enzyme, extracted from rabbit lung, in the presence or absence of various concentrations of test substance in potassium phosphate buffer (pH 8.3; 100 mM) containing sodium chloride (300 mM) for 25 minutes at 37° C. (total […] 500 μl). The reaction is terminated by the addition of 3 ml of potassium phosphate buffer (pH 8.3; 200 mM) at 0° C. 2,4,6-Trichloro-s-triazine (3%) in 1.5 ml of dioxane is added and the mixture is agitated until the yellow chromophore has developed fully. The samples are then centrifuged to remove any precipitate which has formed. The yellow chromophore formed by the reaction of the 2,4,6-trichloro-s-triazine with free hippuric acid is measured spectrophotometrically at 382 nm. IC50 values are defined as the concentration of test substance which reduces by 50% the cleavage of hippurly-histidyl-leucine by angiotensin converting enzyme under the aforementioned conditions.

`CC1(CCS)C(=O)N2CCCC(C(=O)O)N2C1=O` (stereo not drawn) [Compound A, Hexahydro-2-(2-mercaptoethyl)-2-methyl-1,3-dioxo-1H-pyrazolo[1,2-a]pyridazine-5-carboxylic acid] gave a pIC50 of 7.00. To `CCC1(CCS)C(=O)N2CC=CC(C(=O)O)N2C1=O` (stereo not drawn) [Compound C, 2-Ethyl-2,3,5,8-tetrahydro-2-(2-mercaptoethyl)-1,3-dioxo-1H-pyrazolo-[1,2-a]pyridazine-5-carboxylic acid] belongs 7.37; to `CC1(CCS)CN2CCCC(C(=O)O)N2C1=O` (stereo not drawn) [Compound B, Hexahydro-2-(2-mercaptoethyl)-2-methyl-3-oxo-1H-pyrazolo[1,2-a]pyridazine-5-carboxylic acid], 7.00.
